From patent US9260710B2, “Photocleavable linker” (City of Hope, priority 2012, dated 2016)

Key:
[1] = system: GFP-LC8 trap transfected Cos1/Cos7 cells; experiment: Organelle dispersion and microtubule array in cells expressing the LC8 trap; type: cell-based
Excerpt: (§1) In vivo effect of Dynein LC and IC Traps. As tests for LC function, we evaluated the effects of the traps on early endosome, lysosome, and Golgi distribution, as well as mitotic progression. First, we fused green fluorescent protein (GFP) to the N-terminus of both FKBP-traps to identify transfected cells. Next, we transfected Cos1, Cos7, or HeLa cells with either trap or a GFP-FKBP control and labeled endosomes, lysosomes and Golgi with EEA1, LAMP2 and GM130 markers, respectively (FIGS. 12A-12C). […] The percentage of cells expressing the GFPLC8 or GFP-TcTex1 trap with dispersed endosomes was 14.7±1.5% and 13.3±1.5%, respectively, as compared to 11.7±3.5% and 10.3±3.5% for non-transfected cells and cells that expressed a GFP-FKBP control, respectively. […] After 8 h of treatment with AP20187, we observed greater than 50% dispersion of the three organelle types for each trap.
(§2) To ensure the AP20187 concentration was not limiting, we followed the LC8-trap-induced dispersion of lysosomes as a function of AP20187 concentration after 8 h. […] For the TcTex1-trap, we observed efficient endosome, lysosome and Golgi dispersion at AP20187 concentrations of 1 μM or greater.
(§3) Kinetic Analysis Separates Dynein Functions. A major purpose for developing these traps is to provide immediate inhibition of protein function and follow the cellular response from this perturbation to gain new insight. Thus, we monitored the fraction of cells with dispersed organelles as a function of time. After induction of dimerization by AP20187, effects on both early endosome and lysosome distribution were detectable at 10 min, and leveled off at ˜2 h (FIGS. 14A-14B). […] The most rapid effect was observed on lysosomes in cells expressing the LC8 trap. In striking contrast, Golgi dispersal using either trap occurred over a much longer time-course, requiring 8 h after induction of dimerization to reach similar levels of dispersion as for endosomes and lysosomes. Twenty-four hours after addition of AP20187, the percentage of cells with dispersed Golgi reached levels greater than 85%.

[2] = system: GFP-TcTex1 trap transfected Cos1/Cos7 cells; experiment: Organelle dispersion and microtubule array in cells expressing the TcTex1 trap; type: cell-based; set-up: dispersion of the three organelle types (early endosomes, lysosomes, Golgi): dose or concentration left out as unconfirmed
Excerpt: as §1, §2, §3

[3] = after induction of dimerization
[4] = twenty-four hours after addition

CCC(C(=O)N1CCCCC1C(=O)OC(CCc1ccc(OC)c(OC)c1)c1cccc(OCC(=O)NCC(CNC(=O)COc2cccc(C(CCc3ccc(OC)c(OC)c3)OC(=O)C3CCCCN3C(=O)C(CC)c3cc(OC)c(OC)c(OC)c3)c2)CN(C)C)c1)c1cc(OC)c(OC)c(OC)c1 (centres unmarked) [AP, AP20187]
dispersion of the three organelle types (early endosomes, lysosomes, Golgi) ([1]; 8 h of treatment, 100 μM AP20187): greater than 50% | microtubule radial array / cytoskeleton changes ([1]; 8 h post-induction): No significant changes | AP20187 concentration at which lysosome dispersion reached a plateau ([1]; after 8 h): 100 nM | time at which effects on early endosome and lysosome distribution leveled off [1, 3]: ~2 h | time at which effects on early endosome and lysosome distribution were detectable [1, 3]: 10 min | time required for Golgi dispersal to reach similar levels as endosomes and lysosomes [1, 3]: 8 h | percentage of cells with dispersed Golgi [1, 4]: greater than 85% | AP20187 concentrations giving efficient endosome, lysosome and Golgi dispersion [2]: ≥ 1 µM | dispersion of the three organelle types (early endosomes, lysosomes, Golgi) ([2]; 8 h of treatment): greater than 50% | microtubule radial array / cytoskeleton changes ([2]; 8 h post-induction): No significant changes | time at which effects on early endosome and lysosome distribution leveled off [2, 3]: ~2 h | time at which effects on early endosome and lysosome distribution were detectable [2, 3]: 10 min | time required for Golgi dispersal to reach similar levels as endosomes and lysosomes [2, 3]: 8 h | percentage of cells with dispersed Golgi [2, 4]: greater than 85%
